From ChEMBL document CHEMBL1149010, “A comparative study on anti-inflammatory activities of the enantiomers, shikonin and alkannin” (1986)

Legend:
Type in all cases: functional
Rattus norvegicus [1] = experiment: Decrease in histamine-induced capillary permeability in Wistar rat assessed as inhibition of pontamine sky blue 6BX dye leakage at 50 ug treated topically relative to control
Rattus norvegicus [2] = experiment: Decrease in histamine-induced capillary permeability in Wistar rat assessed as inhibition of pontamine sky blue 6BX dye leakage at 100 ug treated topically relative to control
Rattus norvegicus [3] = experiment: Antiinflammatory activity against thermal injury-induced edema in Wistar rat skin assessed as inhibition of edema at 50 ug treated topically relative to control; design: scale not given: the % may be the effect or the level left
Rattus norvegicus [4] = experiment: Antiinflammatory activity against thermal injury-induced edema in Wistar rat skin assessed as inhibition of edema at 100 ug treated topically relative to control; design: scale not given: the % may be the effect or the level left

Row | Structure (SMILES) | inhibition (INH) (Rattus norvegicus [1]) [%] | inhibition (INH) (Rattus norvegicus [2]) [%] | Activity (Rattus norvegicus [3]) [%] | Activity (Rattus norvegicus [4]) [%]
1 | CC(C)=CC[C@@H](O)C1=CC(=O)c2c(O)ccc(O)c2C1=O (stereo in doubt; form 1) [SHIKONIN] | 13.7 | 22.3 | 22 | 20.6
2 | CC(C)=CC[C@@H](O)C1=CC(=O)c2c(O)ccc(O)c2C1=O (stereo in doubt; form 2) [SHIKONIN] | – | – | 26.7 | 23.2
3 | CC(C)=CC[C@H](O)C1=CC(=O)c2c(O)ccc(O)c2C1=O [ALKANNIN] | 7.9 | 21.3 | 21.3 | 21.7
4 | CCCCC1C(=O)N(c2ccccc2)N(c2ccccc2)C1=O [PHENYLBUTAZONE] | – | – | 38.9 | –
